Tests used:
Test in all cases: SelectScreen kinase assay
Assay type in all cases: biochemical
[1] = target: T1, Fes_h (Homo sapiens, UniProt P07332); details: KM ATP, read-out: % control
T1 construct: purchased Life Technologies (Invitrogen) SelectScreen, Z'-LYTE / Adapta
How it was run: (§1)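 With compound constant at 3 µM, kinase activity was determined by Z'-Lyte or Adapta at KM ATP or at 10 or 100 µM ATP. Uninhibited DMSO-only wells defined 100% control.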

[2] = target: T2, EphA5_h (Homo sapiens, UniProt P54756); details: KM ATP, read-out: % control
T2 construct: purchased Life Technologies (Invitrogen) SelectScreen, Z'-LYTE / Adapta
How it was run: as §1

[3] = target: T3, EphA2_h (Homo sapiens, UniProt P29317); details: KM ATP, read-out: % control
T3 construct: purchased Life Technologies (Invitrogen) SelectScreen, Z'-LYTE / Adapta
How it was run: as §1

[4] = target: T4, Ltk_h (Homo sapiens, UniProt P29376); details: KM ATP, read-out: % control
T4 construct: purchased Life Technologies (Invitrogen) SelectScreen, Z'-LYTE / Adapta
How it was run: as §1

[5] = target: T5, p38-alpha_h (Homo sapiens, UniProt Q16539); details: 100 µM ATP, read-out: % control
T5 construct: purchased Life Technologies (Invitrogen) SelectScreen, Z'-LYTE / Adapta
How it was run: as §1

[6] = target: T6, EphB1_h (Homo sapiens, UniProt P54762); details: KM ATP, read-out: % control
T6 construct: purchased Life Technologies (Invitrogen) SelectScreen, Z'-LYTE / Adapta
T6 sequence (P54762 18-984): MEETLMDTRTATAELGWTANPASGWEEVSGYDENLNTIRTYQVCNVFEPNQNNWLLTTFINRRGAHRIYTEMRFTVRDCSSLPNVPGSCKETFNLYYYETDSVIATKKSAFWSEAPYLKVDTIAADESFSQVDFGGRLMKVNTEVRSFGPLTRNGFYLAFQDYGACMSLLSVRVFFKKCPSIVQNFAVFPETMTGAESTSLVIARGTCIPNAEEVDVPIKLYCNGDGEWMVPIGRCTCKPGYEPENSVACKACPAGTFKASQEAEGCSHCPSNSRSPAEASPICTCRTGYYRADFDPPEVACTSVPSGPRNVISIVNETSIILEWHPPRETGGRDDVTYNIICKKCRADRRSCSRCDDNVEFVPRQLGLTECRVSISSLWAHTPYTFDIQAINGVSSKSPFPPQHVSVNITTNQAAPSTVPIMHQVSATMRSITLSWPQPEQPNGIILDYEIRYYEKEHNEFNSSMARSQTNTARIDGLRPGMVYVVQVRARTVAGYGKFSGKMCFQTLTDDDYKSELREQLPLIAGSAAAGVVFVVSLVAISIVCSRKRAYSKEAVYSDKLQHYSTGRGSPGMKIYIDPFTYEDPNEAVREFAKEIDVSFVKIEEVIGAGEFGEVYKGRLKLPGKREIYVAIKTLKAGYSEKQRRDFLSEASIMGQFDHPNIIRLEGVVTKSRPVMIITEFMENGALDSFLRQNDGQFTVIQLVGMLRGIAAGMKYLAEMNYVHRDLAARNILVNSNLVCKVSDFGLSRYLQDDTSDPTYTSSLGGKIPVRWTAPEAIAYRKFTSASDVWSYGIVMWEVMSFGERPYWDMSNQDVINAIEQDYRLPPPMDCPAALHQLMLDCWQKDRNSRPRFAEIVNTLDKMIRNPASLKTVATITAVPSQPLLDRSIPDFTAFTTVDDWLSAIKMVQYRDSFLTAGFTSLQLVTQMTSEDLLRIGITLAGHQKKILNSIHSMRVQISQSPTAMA
How it was run: as §1

[7] = target: T7, Pim-2_h (Homo sapiens, UniProt Q9P1W9); details: KM ATP, read-out: % control
T7 construct: purchased Life Technologies (Invitrogen) SelectScreen, Z'-LYTE / Adapta
How it was run: as §1

[8] = target: T8, DCAMKL2_h (Homo sapiens, UniProt Q8N568); details: KM ATP, read-out: % control
T8 construct: purchased Life Technologies (Invitrogen) SelectScreen, Z'-LYTE / Adapta
How it was run: as §1

[9] = target: T9, GSK3-alpha_h (Homo sapiens, UniProt P49840); details: KM ATP, read-out: % control
T9 construct: purchased Life Technologies (Invitrogen) SelectScreen, Z'-LYTE / Adapta
How it was run: as §1

[10] = target: T10, GRK4_h (Homo sapiens, UniProt P32298); details: KM ATP, read-out: % control
T10 construct: purchased Life Technologies (Invitrogen) SelectScreen, Z'-LYTE / Adapta
How it was run: as §1

[11] = target: T11, NEK4_h (Homo sapiens, UniProt P51957); details: KM ATP, read-out: % control
T11 construct: purchased Life Technologies (Invitrogen) SelectScreen, Z'-LYTE / Adapta
How it was run: as §1

[12] = target: T12, Lck_h (Homo sapiens, UniProt P06239); details: KM ATP, read-out: % control
T12 construct: purchased Life Technologies (Invitrogen) SelectScreen, Z'-LYTE / Adapta
How it was run: as §1

[13] = target: T13, MSSK1_h (Homo sapiens, UniProt Q9UPE1); details: KM ATP, read-out: % control
T13 construct: purchased Life Technologies (Invitrogen) SelectScreen, Z'-LYTE / Adapta
How it was run: as §1

[14] = target: T14, MAPK1_h (Homo sapiens, UniProt P28482); details: KM ATP, read-out: % control
T14 construct: purchased Life Technologies (Invitrogen) SelectScreen, Z'-LYTE / Adapta
How it was run: as §1

[15] = target: T15, MRCK-beta_h (Homo sapiens, UniProt Q9Y5S2); details: KM ATP, read-out: % control
T15 construct: purchased Life Technologies (Invitrogen) SelectScreen, Z'-LYTE / Adapta
T15 sequence (Q9Y5S2 whole entry): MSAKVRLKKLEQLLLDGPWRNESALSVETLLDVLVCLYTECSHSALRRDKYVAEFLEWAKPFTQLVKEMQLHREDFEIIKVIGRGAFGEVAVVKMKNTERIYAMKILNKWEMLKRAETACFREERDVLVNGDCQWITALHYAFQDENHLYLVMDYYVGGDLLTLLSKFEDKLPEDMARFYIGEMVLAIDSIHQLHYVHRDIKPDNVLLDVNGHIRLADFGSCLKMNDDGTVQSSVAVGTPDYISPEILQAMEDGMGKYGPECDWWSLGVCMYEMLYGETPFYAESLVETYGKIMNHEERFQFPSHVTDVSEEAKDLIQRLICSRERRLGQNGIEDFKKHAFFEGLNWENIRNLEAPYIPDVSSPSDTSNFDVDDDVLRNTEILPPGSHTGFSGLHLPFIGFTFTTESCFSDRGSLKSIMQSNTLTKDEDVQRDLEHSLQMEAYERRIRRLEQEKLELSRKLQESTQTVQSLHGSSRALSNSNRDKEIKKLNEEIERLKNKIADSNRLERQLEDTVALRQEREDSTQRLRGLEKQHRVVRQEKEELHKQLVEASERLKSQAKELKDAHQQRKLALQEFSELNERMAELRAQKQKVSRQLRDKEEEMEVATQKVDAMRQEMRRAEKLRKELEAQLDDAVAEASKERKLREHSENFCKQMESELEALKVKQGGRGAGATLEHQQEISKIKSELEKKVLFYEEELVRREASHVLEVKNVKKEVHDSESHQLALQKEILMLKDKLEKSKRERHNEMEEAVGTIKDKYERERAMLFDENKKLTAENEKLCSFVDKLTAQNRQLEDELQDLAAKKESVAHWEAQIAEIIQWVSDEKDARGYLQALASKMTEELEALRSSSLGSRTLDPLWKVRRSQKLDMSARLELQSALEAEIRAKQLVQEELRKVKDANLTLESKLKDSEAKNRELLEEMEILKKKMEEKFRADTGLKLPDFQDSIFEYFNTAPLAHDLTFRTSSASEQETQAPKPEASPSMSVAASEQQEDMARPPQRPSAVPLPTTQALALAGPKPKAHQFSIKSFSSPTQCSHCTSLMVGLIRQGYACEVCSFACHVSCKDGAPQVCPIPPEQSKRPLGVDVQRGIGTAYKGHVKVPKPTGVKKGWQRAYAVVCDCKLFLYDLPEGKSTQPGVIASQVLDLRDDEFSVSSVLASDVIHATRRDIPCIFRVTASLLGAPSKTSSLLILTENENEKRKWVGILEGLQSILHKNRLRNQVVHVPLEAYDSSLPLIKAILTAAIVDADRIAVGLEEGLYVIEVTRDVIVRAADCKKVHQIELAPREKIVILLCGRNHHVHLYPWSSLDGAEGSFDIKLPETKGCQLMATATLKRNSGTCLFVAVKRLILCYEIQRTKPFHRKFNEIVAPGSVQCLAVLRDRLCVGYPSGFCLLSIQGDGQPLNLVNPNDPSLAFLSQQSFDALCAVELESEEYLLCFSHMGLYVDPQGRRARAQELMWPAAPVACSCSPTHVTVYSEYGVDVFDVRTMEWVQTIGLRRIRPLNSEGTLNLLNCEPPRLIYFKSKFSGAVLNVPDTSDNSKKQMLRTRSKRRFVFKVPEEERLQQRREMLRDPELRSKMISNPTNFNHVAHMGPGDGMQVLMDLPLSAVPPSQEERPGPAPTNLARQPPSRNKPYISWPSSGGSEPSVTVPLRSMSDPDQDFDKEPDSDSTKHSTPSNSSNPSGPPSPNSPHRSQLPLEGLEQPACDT
How it was run: as §1

[16] = target: T16, SRMS_h (Homo sapiens, UniProt Q9H3Y6); details: KM ATP, read-out: % control
T16 construct: purchased Life Technologies (Invitrogen) SelectScreen, Z'-LYTE / Adapta
How it was run: as §1

[17] = target: T17, PRKG2_h (Homo sapiens, UniProt Q13237); details: KM ATP, read-out: % control
T17 construct: purchased Life Technologies (Invitrogen) SelectScreen, Z'-LYTE / Adapta
How it was run: as §1

[18] = target: T18, PKB-alpha_h (Homo sapiens, UniProt P31749); details: KM ATP, read-out: % control
T18 construct: purchased Life Technologies (Invitrogen) SelectScreen, Z'-LYTE / Adapta
How it was run: as §1

[19] = target: T19, TSSK1_h (Homo sapiens, UniProt Q9BXA7); details: KM ATP, read-out: % control
T19 construct: purchased Life Technologies (Invitrogen) SelectScreen, Z'-LYTE / Adapta
How it was run: as §1

[20] = target: T20, CHK2_h (Homo sapiens, UniProt O96017); details: KM ATP, read-out: % control
T20 construct: purchased Life Technologies (Invitrogen) SelectScreen, Z'-LYTE / Adapta
How it was run: as §1

[21] = target: T21, MST2_h (Homo sapiens, UniProt Q13188); details: KM ATP, read-out: % control
T21 construct: purchased Life Technologies (Invitrogen) SelectScreen, Z'-LYTE / Adapta
How it was run: as §1

[22] = target: T22, MKK6_h (Homo sapiens, UniProt P52564); details: 100 µM ATP, read-out: % control
T22 construct: purchased Life Technologies (Invitrogen) SelectScreen, Z'-LYTE / Adapta
How it was run: as §1

[23] = target: T23, FGFR3_h (Homo sapiens, UniProt P22607); details: KM ATP, read-out: % control
T23 construct: purchased Life Technologies (Invitrogen) SelectScreen, Z'-LYTE / Adapta
How it was run: as §1

[24] = target: T24, LRRK2_h (Homo sapiens, UniProt Q5S007); details: KM ATP, read-out: % control
T24 construct: purchased Life Technologies (Invitrogen) SelectScreen, Z'-LYTE / Adapta
How it was run: as §1

[25] = target: T25, LYN-B_h (Homo sapiens, UniProt P07948); details: KM ATP, read-out: % control
T25 construct: purchased Life Technologies (Invitrogen) SelectScreen, Z'-LYTE / Adapta
How it was run: as §1

[26] = target: T26, IR_h (Homo sapiens, UniProt P06213); details: KM ATP, read-out: % control
T26 construct: purchased Life Technologies (Invitrogen) SelectScreen, Z'-LYTE / Adapta
T26 sequence (P06213 28-1382): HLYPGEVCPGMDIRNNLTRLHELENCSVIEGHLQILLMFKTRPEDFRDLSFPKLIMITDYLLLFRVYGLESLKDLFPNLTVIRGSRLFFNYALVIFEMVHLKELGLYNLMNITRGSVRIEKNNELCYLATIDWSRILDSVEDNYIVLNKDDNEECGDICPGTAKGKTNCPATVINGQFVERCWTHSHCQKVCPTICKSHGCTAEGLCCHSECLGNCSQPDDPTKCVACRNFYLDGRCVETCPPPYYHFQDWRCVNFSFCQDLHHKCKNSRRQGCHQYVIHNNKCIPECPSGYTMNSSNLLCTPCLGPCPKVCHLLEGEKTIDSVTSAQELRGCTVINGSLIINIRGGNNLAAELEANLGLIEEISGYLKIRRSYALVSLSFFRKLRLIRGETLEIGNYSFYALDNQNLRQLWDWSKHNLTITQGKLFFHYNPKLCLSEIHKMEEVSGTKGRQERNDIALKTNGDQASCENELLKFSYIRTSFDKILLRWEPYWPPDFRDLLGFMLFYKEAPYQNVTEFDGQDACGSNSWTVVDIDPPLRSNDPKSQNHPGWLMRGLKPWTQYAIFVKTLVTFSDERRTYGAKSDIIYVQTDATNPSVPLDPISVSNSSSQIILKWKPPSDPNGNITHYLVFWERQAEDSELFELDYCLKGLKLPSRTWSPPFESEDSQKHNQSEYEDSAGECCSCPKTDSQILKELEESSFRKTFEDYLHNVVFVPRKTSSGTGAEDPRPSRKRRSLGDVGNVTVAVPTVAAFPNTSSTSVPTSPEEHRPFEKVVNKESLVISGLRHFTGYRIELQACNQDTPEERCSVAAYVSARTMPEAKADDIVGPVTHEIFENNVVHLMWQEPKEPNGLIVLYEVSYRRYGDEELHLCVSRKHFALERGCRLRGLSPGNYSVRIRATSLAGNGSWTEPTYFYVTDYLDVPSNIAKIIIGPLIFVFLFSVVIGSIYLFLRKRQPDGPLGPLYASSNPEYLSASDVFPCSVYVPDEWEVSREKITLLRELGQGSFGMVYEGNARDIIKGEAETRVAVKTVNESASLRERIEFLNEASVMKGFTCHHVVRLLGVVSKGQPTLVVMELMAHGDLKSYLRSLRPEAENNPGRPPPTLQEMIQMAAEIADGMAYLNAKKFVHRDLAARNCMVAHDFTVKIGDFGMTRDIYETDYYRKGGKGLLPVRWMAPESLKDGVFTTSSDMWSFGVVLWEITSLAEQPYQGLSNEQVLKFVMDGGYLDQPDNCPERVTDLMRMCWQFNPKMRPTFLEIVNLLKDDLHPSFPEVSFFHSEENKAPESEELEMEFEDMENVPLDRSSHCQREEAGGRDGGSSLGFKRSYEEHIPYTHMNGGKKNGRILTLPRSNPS
How it was run: as §1

[27] = target: T27, CaMKII-beta_h (Homo sapiens, UniProt Q13554); details: KM ATP, read-out: % control
T27 construct: purchased Life Technologies (Invitrogen) SelectScreen, Z'-LYTE / Adapta
How it was run: as §1

[28] = target: T28, MST1_h (Homo sapiens, UniProt Q13043); details: KM ATP, read-out: % control
T28 construct: purchased Life Technologies (Invitrogen) SelectScreen, Z'-LYTE / Adapta
How it was run: as §1

[29] = target: T29, EphA4_h (Homo sapiens, UniProt P54764); details: KM ATP, read-out: % control
T29 construct: purchased Life Technologies (Invitrogen) SelectScreen, Z'-LYTE / Adapta
How it was run: as §1

[30] = target: T30, Plk2_h (Homo sapiens, UniProt Q9NYY3); details: KM ATP, read-out: % control
T30 construct: purchased Life Technologies (Invitrogen) SelectScreen, Z'-LYTE / Adapta
How it was run: as §1

[31] = target: T31, CK1-gamma2_h (Homo sapiens, UniProt P78368); details: KM ATP, read-out: % control
T31 construct: purchased Life Technologies (Invitrogen) SelectScreen, Z'-LYTE / Adapta
How it was run: as §1

[32] = target: T32, PKD2_h (Homo sapiens, UniProt Q9BZL6); details: KM ATP, read-out: % control
T32 construct: purchased Life Technologies (Invitrogen) SelectScreen, Z'-LYTE / Adapta
How it was run: as §1

[33] = target: T33, PDGFR-alpha_D842V_h (Homo sapiens, UniProt P16234, D842V); details: KM ATP, read-out: % control
T33 construct: purchased Life Technologies (Invitrogen) SelectScreen, Z'-LYTE / Adapta
How it was run: as §1

[34] = target: T34, cKit_T670I_h (Homo sapiens, UniProt P10721, T670I); details: KM ATP, read-out: % control
T34 construct: purchased Life Technologies (Invitrogen) SelectScreen, Z'-LYTE / Adapta
How it was run: as §1

T1 sequence (P07332 whole entry): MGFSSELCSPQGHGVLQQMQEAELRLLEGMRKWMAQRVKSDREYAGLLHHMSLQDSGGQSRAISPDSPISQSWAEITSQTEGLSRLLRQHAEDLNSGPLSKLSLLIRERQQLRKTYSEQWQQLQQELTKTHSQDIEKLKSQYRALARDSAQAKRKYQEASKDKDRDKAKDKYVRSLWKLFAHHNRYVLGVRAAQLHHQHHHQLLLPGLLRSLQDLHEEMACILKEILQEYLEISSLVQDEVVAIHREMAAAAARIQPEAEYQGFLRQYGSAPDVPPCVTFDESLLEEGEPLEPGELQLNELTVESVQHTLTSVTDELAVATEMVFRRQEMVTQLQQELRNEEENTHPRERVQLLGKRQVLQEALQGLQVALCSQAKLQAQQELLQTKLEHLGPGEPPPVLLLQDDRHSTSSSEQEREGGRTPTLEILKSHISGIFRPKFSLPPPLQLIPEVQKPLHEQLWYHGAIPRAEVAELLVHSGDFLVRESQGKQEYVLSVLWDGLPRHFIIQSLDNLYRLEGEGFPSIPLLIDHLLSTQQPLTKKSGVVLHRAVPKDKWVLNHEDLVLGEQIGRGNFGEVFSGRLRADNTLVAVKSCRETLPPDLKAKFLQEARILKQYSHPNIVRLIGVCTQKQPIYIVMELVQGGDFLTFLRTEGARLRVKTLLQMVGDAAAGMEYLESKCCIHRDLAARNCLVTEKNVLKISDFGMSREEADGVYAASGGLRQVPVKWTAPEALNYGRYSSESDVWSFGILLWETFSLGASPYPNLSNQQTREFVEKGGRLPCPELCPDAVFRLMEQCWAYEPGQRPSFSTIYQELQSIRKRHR

For `c1cc(CC2CCOCC2)n2nc(Nc3ccc4c(NC5CCOCC5)n[nH]c4c3)nc2c1` [CC-509, [3-(2H-3,4,5,6-tetrahydropyran-4-ylamino)(1H-indazol-6-yl)][5-(2H-3,4,5,6-tetrahydropyran-4-ylmethyl)(2H-1,2,4-triazolo[1,5-a]pyridin-2-yl)]amine], the remaining activity at 3 µM [1] was 53%, the remaining activity at 3 µM [2] was 89% and the remaining activity at 3 µM [3] was 82%. For the same compound, the remaining activity at 3 µM [4] was 71%, the remaining activity at 3 µM [5] was 89% and the remaining activity at 3 µM [6] was 41%. It also gave a remaining activity at 3 µM [7] of 99%, a remaining activity at 3 µM [8] of 98% and a remaining activity at 3 µM [9] of 91%. For the same compound, the remaining activity at 3 µM [10] was 82%, the remaining activity at 3 µM [11] was 78% and the remaining activity at 3 µM [12] was 39%. For the same compound, the remaining activity at 3 µM [13] was 98%, the remaining activity at 3 µM [14] was 94% and the remaining activity at 3 µM [15] was 94%. The remaining activity at 3 µM [16] was 90%, the remaining activity at 3 µM [17] was 93% and the remaining activity at 3 µM [18] was 100%. It also gave a remaining activity at 3 µM [19] of 62%, a remaining activity at 3 µM [20] of 97% and a remaining activity at 3 µM [21] of 46%. The remaining activity at 3 µM [22] was 101%, the remaining activity at 3 µM [23] was 68% and the remaining activity at 3 µM [24] was 3%. For the same compound, the remaining activity at 3 µM [25] was 39%, the remaining activity at 3 µM [26] was 91% and the remaining activity at 3 µM [27] was 104%. It also gave a remaining activity at 3 µM [28] of 65%, a remaining activity at 3 µM [29] of 76% and a remaining activity at 3 µM [30] of 96%. The remaining activity at 3 µM [31] was 68%, the remaining activity at 3 µM [32] was 52% and the remaining activity at 3 µM [33] was 9%. The remaining activity at 3 µM [34] was 83%.
